Our source for the IC50 values is BindingDB's records for doi:10.1021/jm00054a015 (Merck Research Laboratories, 1993).

The target in the test is T1, Dimer of Gag-Pol polyprotein [489-587] (Human immunodeficiency virus 1, UniProt P12497).
T1 construct: 489-587
The test can be described thus: Protease Inhibition Assay. Conditions: pH 5.5; 30 °C. On the procedure: Sensitivity of HIV-1 protease activity to protease inhibitors was determined by a peptide substrate cleavage assay. Protease products were analyzed on a reverse-phase high-pressure liquid chromatograph.

With `CC(C)(C)NC(=O)C1C[C@@H]2CCCC[C@@H]2CN1C[C@@H](O)[C@H](Cc1ccccc1)NC(=O)O[C@@H]1C=CCOC1` (stereo partly drawn) [(3R)-3,6-dihydro-2H-pyran-3-yl N-[(2S,3R)-4-[(4aS,8aS)-3-(tert-butylcarbamoyl)-decahydroisoquinolin-2-yl]-3-hydroxy-1-phenylbutan-2-yl]carbamate], the IC50 came to 48.9 nM.
In the case of `CC(C)(C)NC(=O)C1C[C@@H]2CCCC[C@@H]2CN1C[C@@H](O)[C@H](Cc1ccccc1)NC(=O)O[C@@H]1CCCOC1` (stereo partly drawn) [(3R)-oxan-3-yl N-[(2S,3R)-4-[(4aS,8aS)-3-(tert-butylcarbamoyl)-decahydroisoquinolin-2-yl]-3-hydroxy-1-phenylbutan-2-yl]carbamate], the IC50 came out at 308 nM.
The compound `O=C(N[C@@H](Cc1ccccc1)[C@@H](O)C[C@@H](Cc1ccccc1)C(=O)N[C@H]1c2ccccc2C[C@H]1O)O[C@@H]1CCCOC1` [(3R)-oxan-3-yl N-[(2S,3S,5R)-5-benzyl-3-hydroxy-5-{[(1S,2R)-2-hydroxy-2,3-dihydro-1H-inden-1-yl]carbamoyl}-1-phenylpentan-2-yl]carbamate] registered an IC50 below 0.03 nM.
For `CC(C)(C)NC(=O)C1C[C@@H]2CCCC[C@@H]2CN1C[C@@H](O)[C@H](Cc1ccccc1)NC(=O)O[C@H]1C=CCOC1` (stereo partly drawn) [(3S)-3,6-dihydro-2H-pyran-3-yl N-[(2S,3R)-4-[(4aS,8aS)-3-(tert-butylcarbamoyl)-decahydroisoquinolin-2-yl]-3-hydroxy-1-phenylbutan-2-yl]carbamate], the IC50 came out at 314 nM.
Compound `CC(C)(C)NC(=O)C1C[C@@H]2CCCC[C@@H]2CN1C[C@@H](O)[C@H](Cc1ccccc1)NC(=O)O[C@H]1CCCOC1` (stereo partly drawn) [(3S)-oxan-3-yl N-[(2S,3R)-4-[(4aS,8aS)-3-(tert-butylcarbamoyl)-decahydroisoquinolin-2-yl]-3-hydroxy-1-phenylbutan-2-yl]carbamate] registered a half-inhibitory concentration (IC50) of 392 nM.
Take `O=C(N[C@@H](Cc1ccccc1)[C@@H](O)C[C@@H](Cc1ccccc1)C(=O)N[C@H]1c2ccccc2C[C@H]1O)O[C@H]1CCCOC1` [(3S)-oxan-3-yl N-[(2S,3S,5R)-5-benzyl-3-hydroxy-5-{[(1S,2R)-2-hydroxy-2,3-dihydro-1H-inden-1-yl]carbamoyl}-1-phenylpentan-2-yl]carbamate]: the concentration for half-maximal inhibition (IC50) was below 0.03 nM.
For `O=C(N[C@@H](Cc1ccccc1)[C@@H](O)C[C@@H](Cc1ccccc1)C(=O)N[C@H]1c2ccccc2C[C@H]1O)O[C@H]1CCOC1` [(3S)-oxolan-3-yl N-[(2S,3S,5R)-5-benzyl-3-hydroxy-5-{[(1S,2R)-2-hydroxy-2,3-dihydro-1H-inden-1-yl]carbamoyl}-1-phenylpentan-2-yl]carbamate], the half-inhibitory concentration (IC50) is below 0.03 nM.
Take `CC(C)(C)NC(=O)C1C[C@@H]2CCCC[C@@H]2CN1C[C@@H](O)[C@H](Cc1ccccc1)NC(=O)OC(C)(C)C` (stereo partly drawn) [tert-butyl N-[(2S,3R)-4-[(4aS,8aS)-3-(tert-butylcarbamoyl)-decahydroisoquinolin-2-yl]-3-hydroxy-1-phenylbutan-2-yl]carbamate]: the IC50 is above 3000 nM.
